{"source": "patent US11193136B2", "about": "“Cellulose synthase inhibitors and mutant plants” (VIB VZW, priority 2016, dated 2021)", "key": {"[1]": {"tested_on": "wild type Arabidopsis (Col-0)", "experiment": "Growth of Arabidopsis seedlings on half MS medium with C17 or analogues", "assay_type": "in vivo", "details": "200 nM", "procedure": "(§1) C17 (5-(4-chlorophenyl)-7-(2-methoxyphenyl)-1,5,6,7-tetrahydro-[1,2,4]triazolo[1,5-a]pyrimidine; ChemDiv, Catalogue #: 7693622), a synthetic molecule, was identified from a chemical screen as a ploidy-inducing compound in Arabidopsis protoplasts. To test the effects of C17 on plants, Arabidopsis seeds were plated on half MS medium (Murashige, T. and F. Skoog, 1962) in the presence or absence of 200 nM C17 or its analogues. […] To dissect the C17 inhibitory effects, we employed confocal laser scanning microscopy (LSM710, ZEISS) to observe the root structure. Five-day-old Arabidopsis seedlings grown on vertical plates were transferred to half MS medium containing C17 for further growth. After three-day treatment, the root tips were analysed. Consistent to its growth inhibitory activity, C17 caused cell death at a concentration as little as 25 nM (FIG. 2). At the lowest concentration applied, root cortical cells of the transition zone were affected. This phenotype was aggravated and expanded to other tissues with an increasing dosage of C17 (FIG. 2).\n(§2) For studying the growth inhibitory effects of C17 on plants, wild type and C17 resistant mutants were germinated on half MS medium (Murashige and Skoog, 1962) supplemented with or without indicated levels of C17 or its analogs. Seven-day-old seedlings were photographed. […]"}, "Arabidopsis root": {"tested_on": "Arabidopsis root", "experiment": "Root structure and cell death by propidium iodide staining and confocal microscopy", "assay_type": "in vivo", "procedure": "as §1, §2"}, "[2]": {"tested_on": "ixr1-1, ixr1-2, and ixr2-1 mutants", "experiment": "Sensitivity of isoxaben resistant mutants to C17", "assay_type": "in vivo, Arabidopsis", "details": "200 nM C17, 3 days", "excerpt": "To date, several cellulose synthase inhibitors have been reported. In terms of molecular structure, the C17 compound differs completely from any known cellulose inhibitor.\nFor studying the growth inhibitory effects of C17 on plants, wild type and C17 resistant mutants were germinated on half MS medium (Murashige and Skoog, 1962) supplemented with or without indicated levels of C17 or its analogs. Seven-day-old seedlings were photographed. For observation of the root structure, five-day-old Arabidopsis seedlings were transferred to half MS medium containing different dosages of C17. After a three-day treatment, seedlings were photographed and their root tips were stained with propidium iodide (PI), a fluorescent dye that is excluded from the membranes of healthy cells but penetrates the plasma membrane of dead cells. The stained root tips were visualized by confocal laser scanning microscopy (LSM710, ZEISS). The ixr1-1 (collection number CS6201), ixr1-2 (CS6202) and ixr2-1 (CS6203) mutants were acquired from the ABRC. Five-day-old Arabidopsis seedlings were transferred to half MS medium with or without 200 nM C17. After 3 day, the plants were photographed."}, "[3]": {"tested_on": "Arabidopsis root elongation zone", "experiment": "Detection of cell wall weakening by PI uptake under gentle pressure on the root", "assay_type": "in vivo", "procedure": "Because the cellulose synthesized by the CESA1/CESA3 complex is a primary cell wall component, it was expected that C17-treated plants would display a weaker cell wall, which can be visualized by the uptake of propidium iodide (PI) following the application of a gentle pressure on the root.\nFor the detection of cell wall weakening, 3-day-old seedlings grown on half-strength MS medium were transferred to liquid medium without or with 200 nM C17. The root tips were stained with […] mL^−1 prodium iodide for three min. The stained root tips were put on the Nunc™ Lab-Tek™ Chambered Coverglass (Catalog #155361) without pressure or microscope slide with cover slip that gave a gentle exerting of pressure. By using confocal laser scanning microscopy (LSM710, ZEISS), the brittle cells could be visualized by the uptake of PI."}}, "data": [{"molecule": "COc1ccccc1C1CC(c2ccc(Cl)cc2)N=C2N=CNN21", "note": "(stereo not drawn) [C17, 5-(4-chlorophenyl)-7-(2-methoxyphenyl)-1,5,6,7-tetrahydro-[1,2,4]triazolo[1,5-a]pyrimidine]", "values": [{"measurement": "effect on plant growth", "setting": "[1]", "value": "severe growth inhibition accompanied by radial swelling of the root tip"}, {"measurement": "cell elongation phenotype", "setting": "Arabidopsis root; 100 nM C17, three-day treatment", "value": "radical rather than polar cell elongation"}, {"measurement": "concentration causing cell death in the root", "setting": "Arabidopsis root; five-day-old seedlings, three-day treatment, lowest concentration applied", "value": 25, "unit": "nM"}, {"measurement": "sensitivity of isoxaben resistant mutants (ixr1-1, ixr1-2, ixr2-1)", "setting": "[2]", "value": "still sensitive"}, {"measurement": "PI uptake and growth inhibition in C17-tolerant mutants", "setting": "[3]; 200 nM C17, C17-tolerant mutants", "value": "No PI-positive cells and growth inhibition"}, {"measurement": "time to cell wall weakening in the root elongation zone", "setting": "[3]; 200 nM C17, wild type, PI uptake", "value": "≤ 2", "unit": "h"}]}]}
